Results from PubChem BioAssay (NCI).
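Where inhibition never reached the appropriate level, the endpoint shown equals the highest concentration tested. Otherwise, values were interpolated linearly from a five-concentration, 48-hour dose response in 96-well plates. The concentration for 50% growth inhibition is given as GI50. At the TGI there is no net growth.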

What was measured:
Assay in all cases: NCI anticancer screen, dose series, 48 h
IGROV1 ovarian = tested on: IGROV1 ovarian
SF-539 CNS = tested on: SF-539 CNS
OVCAR-4 ovarian = tested on: OVCAR-4 ovarian
786-0 renal = tested on: 786-0 renal
LOX IMVI melanoma = tested on: LOX IMVI melanoma
MOLT-4 leukemia = tested on: MOLT-4 leukemia
ACHN renal = tested on: ACHN renal
SK-OV-3 ovarian = tested on: SK-OV-3 ovarian
SN12C renal = tested on: SN12C renal
U251 CNS = tested on: U251 CNS
OVCAR-5 ovarian = tested on: OVCAR-5 ovarian
NCI-H522 lung = tested on: NCI-H522 lung
RXF 393 renal = tested on: RXF 393 renal
HCT-116 colon = tested on: HCT-116 colon
SF-268 CNS = tested on: SF-268 CNS
HOP-92 NSCLC = tested on: HOP-92 NSCLC
NCI/ADR-RES ovarian = tested on: NCI/ADR-RES ovarian
SNB-19 CNS = tested on: SNB-19 CNS
T-47D breast = tested on: T-47D breast
A549 NSCLC = tested on: A549 NSCLC
HOP-62 NSCLC = tested on: HOP-62 NSCLC
OVCAR-8 ovarian = tested on: OVCAR-8 ovarian
SW-620 colon = tested on: SW-620 colon
MDA-MB-231 breast = tested on: MDA-MB-231 breast
SR leukemia = tested on: SR leukemia
UACC-62 melanoma = tested on: UACC-62 melanoma
MALME-3M melanoma = tested on: MALME-3M melanoma
CCRF-CEM leukemia = tested on: CCRF-CEM leukemia
UO-31 renal = tested on: UO-31 renal
HCC-2998 colon = tested on: HCC-2998 colon
SK-MEL-28 melanoma = tested on: SK-MEL-28 melanoma
TK-10 renal = tested on: TK-10 renal
NCI-H23 lung = tested on: NCI-H23 lung
SNB-75 CNS = tested on: SNB-75 CNS
M14 melanoma = tested on: M14 melanoma
MDA-MB-435 = tested on: MDA-MB-435
HT29 colon = tested on: HT29 colon
PC-3 prostate = tested on: PC-3 prostate
RPMI-8226 leukemia = tested on: RPMI-8226 leukemia
KM12 colon = tested on: KM12 colon
DU-145 prostate = tested on: DU-145 prostate
EKVX NSCLC = tested on: EKVX NSCLC
A498 renal = tested on: A498 renal
SK-MEL-5 melanoma = tested on: SK-MEL-5 melanoma
BT-549 breast = tested on: BT-549 breast
COLO 205 colon = tested on: COLO 205 colon
SK-MEL-2 melanoma = tested on: SK-MEL-2 melanoma
NCI-H460 lung = tested on: NCI-H460 lung
CAKI-1 renal = tested on: CAKI-1 renal
MCF7 breast = tested on: MCF7 breast
SF-295 CNS = tested on: SF-295 CNS
OVCAR-3 ovarian = tested on: OVCAR-3 ovarian
HL-60(TB) leukemia = tested on: HL-60(TB) leukemia
HCT-15 colon = tested on: HCT-15 colon
K-562 leukemia = tested on: K-562 leukemia
HS 578T breast = tested on: HS 578T breast
UACC-257 melanoma = tested on: UACC-257 melanoma

O=C1CCC/C=C\C[C@H]2C=CC(=O)/C2=C/C[C@H](CCc2cccc(C(F)(F)F)c2)O1
GI50 (IGROV1 ovarian): 3.06 µM | TGI (IGROV1 ovarian): 9.53 µM | GI50 (SF-539 CNS): 2.61 µM | TGI (SF-539 CNS): 6.81 µM | GI50 (OVCAR-4 ovarian): 3.78 µM | TGI (OVCAR-4 ovarian): 15.9 µM | GI50 (786-0 renal): 1.99 µM | TGI (786-0 renal): 3.68 µM | GI50 (LOX IMVI melanoma): 0.44 µM | TGI (LOX IMVI melanoma): 1.82 µM | GI50 (MOLT-4 leukemia): 2.14 µM | TGI (MOLT-4 leukemia): 6.26 µM | GI50 (ACHN renal): 1.19 µM | TGI (ACHN renal): 2.6 µM | GI50 (SK-OV-3 ovarian): 2.92 µM | TGI (SK-OV-3 ovarian): 7.75 µM | GI50 (SN12C renal): 3.66 µM | TGI (SN12C renal): 12.9 µM | GI50 (U251 CNS): 1.26 µM | TGI (U251 CNS): 2.85 µM | GI50 (OVCAR-5 ovarian): 4.05 µM | TGI (OVCAR-5 ovarian): 11.3 µM | GI50 (NCI-H522 lung): 1.23 µM | TGI (NCI-H522 lung): 3.77 µM | GI50 (RXF 393 renal): 1.66 µM | TGI (RXF 393 renal): 3.08 µM | GI50 (HCT-116 colon): 0.327 µM | TGI (HCT-116 colon): 1.48 µM | GI50 (SF-268 CNS): 2.77 µM | TGI (SF-268 CNS): 8.3 µM | GI50 (HOP-92 NSCLC): 2.29 µM | TGI (HOP-92 NSCLC): 4.77 µM | GI50 (NCI/ADR-RES ovarian): 0.748 µM | TGI (NCI/ADR-RES ovarian): 11.3 µM | GI50 (SNB-19 CNS): 2.22 µM | TGI (SNB-19 CNS): 7.04 µM | GI50 (T-47D breast): 1.78 µM | TGI (T-47D breast): 7.12 µM | GI50 (A549 NSCLC): 2.31 µM | TGI (A549 NSCLC): 5.56 µM | GI50 (HOP-62 NSCLC): 2.84 µM | TGI (HOP-62 NSCLC): 6.83 µM | GI50 (OVCAR-8 ovarian): 0.495 µM | TGI (OVCAR-8 ovarian): 5.64 µM | GI50 (SW-620 colon): 2.87 µM | TGI (SW-620 colon): 9.06 µM | GI50 (MDA-MB-231 breast): 4.41 µM | TGI (MDA-MB-231 breast): 18.2 µM | GI50 (SR leukemia): 0.627 µM | TGI (SR leukemia): 5.62 µM | GI50 (UACC-62 melanoma): 2.34 µM | TGI (UACC-62 melanoma): 7.52 µM | GI50 (MALME-3M melanoma): 2.25 µM | TGI (MALME-3M melanoma): 7.1 µM | GI50 (CCRF-CEM leukemia): 0.397 µM | TGI (CCRF-CEM leukemia): 11.4 µM | GI50 (UO-31 renal): 1.57 µM | TGI (UO-31 renal): 3 µM | GI50 (HCC-2998 colon): 2.01 µM | TGI (HCC-2998 colon): 3.54 µM | GI50 (SK-MEL-28 melanoma): 2.56 µM | TGI (SK-MEL-28 melanoma): 6.75 µM | GI50 (TK-10 renal): 2.66 µM | TGI (TK-10 renal): 5.19 µM | GI50 (NCI-H23 lung): 2.16 µM | TGI (NCI-H23 lung): 5.89 µM | GI50 (SNB-75 CNS): 2.02 µM | TGI (SNB-75 CNS): 5.21 µM | GI50 (M14 melanoma): 1.76 µM | TGI (M14 melanoma): 5.32 µM | GI50 (MDA-MB-435): 0.462 µM | TGI (MDA-MB-435): 2.7 µM | GI50 (HT29 colon): 1.11 µM | TGI (HT29 colon): 3.39 µM | GI50 (PC-3 prostate): 1.79 µM | TGI (PC-3 prostate): 4.74 µM | GI50 (RPMI-8226 leukemia): 0.628 µM | TGI (RPMI-8226 leukemia): 6.73 µM | GI50 (KM12 colon): 1.64 µM | TGI (KM12 colon): 3.35 µM | GI50 (DU-145 prostate): 1.66 µM | TGI (DU-145 prostate): 4.58 µM | GI50 (EKVX NSCLC): 1.94 µM | TGI (EKVX NSCLC): 4.08 µM | GI50 (A498 renal): 1.68 µM | TGI (A498 renal): 3.22 µM | GI50 (SK-MEL-5 melanoma): 1.69 µM | TGI (SK-MEL-5 melanoma): 3.09 µM | GI50 (BT-549 breast): 2.57 µM | TGI (BT-549 breast): 7.99 µM | GI50 (COLO 205 colon): 1.58 µM | TGI (COLO 205 colon): 4.16 µM | GI50 (SK-MEL-2 melanoma): 2.06 µM | TGI (SK-MEL-2 melanoma): 4.94 µM | GI50 (NCI-H460 lung): 3.18 µM | TGI (NCI-H460 lung): 10.1 µM | GI50 (CAKI-1 renal): 4.04 µM | TGI (CAKI-1 renal): 16 µM | GI50 (MCF7 breast): 0.287 µM | TGI (MCF7 breast): 2.58 µM | GI50 (SF-295 CNS): 2.15 µM | TGI (SF-295 CNS): 4.83 µM | GI50 (OVCAR-3 ovarian): 1.46 µM | TGI (OVCAR-3 ovarian): 3.23 µM | GI50 (HL-60(TB) leukemia): 2.1 µM | TGI (HL-60(TB) leukemia): 6.88 µM | GI50 (HCT-15 colon): 1.23 µM | TGI (HCT-15 colon): 4.07 µM | GI50 (K-562 leukemia): 0.692 µM | TGI (K-562 leukemia): 6.44 µM | GI50 (HS 578T breast): 4.78 µM | TGI (HS 578T breast): 56.7 µM | GI50 (UACC-257 melanoma): 2.11 µM | TGI (UACC-257 melanoma): 5.18 µM
